Test results taken from patent US6489490B1, “2-(2-chlorophenyl)-3,4-dihydro-2h-pyrrol derivatives” (Bayer Aktiengesellschaft, priority 1998, dated 2002).
Read-outs that look alike come from different tables or passages of the source.

Legend:
[1] = log P determined by HPLC analysis; assay type: physicochemical
Procedure: log P*=[…] logarithm to base 10 of the […] partition coefficient, determined by HPLC analysis on 125×4.0 mm Kromasil 120 C 18 (5 μm), using water/acetonitrile as mobile phase; flow rate: 1.5 ml/min.

[2] = test system: caterpillars of the diamond-back moth (Plutella xylostella); assay: Plutella test; assay type: in vivo; details: concentration of active compound 0.004%, after 6 days, dipped cabbage leaves
Procedure: (§1) Solvent: 7 parts by weight of dimethylformamide
(§2) Emulsifier: 1 part by weight of alkylaryl polyglycol ether
(§3) To produce a suitable preparation of active compound, 1 part by weight of active compound is mixed with the stated amounts of solvent and emulsifier, and the concentrate is diluted with emusifier-containing water to the desired concentration.
Cabbage leaves (Brassica oleracea) are treated by being dipped into the preparation of active compound of the desired concentration and are populated with caterpillars of the diamond-back moth (Plutella xylostella) while the leaves are still moist.
(§4) After the desired period of time, the kill in % is determined. 100% means that all caterpillars have been killed; 0% means that none of the caterpillars have been killed.

[3] = test system: larvae of the mustard beetle (Phaedon cochleariae); assay: Phaedon larvae test; assay type: in vivo; details: concentration of active compound 0.004%, after 6 days, dipped cabbage leaves
Procedure: Phaedon Larvae Test Solvent: 7 parts by weight of dimethylformamide Emulsifier: 1 part by weight of alkylaryl polyglycol ether To produce a suitable preparation of active compound, 1 part by weight of active compound is mixed with the stated amounts of solvent and emulsifier, and the concentrate is diluted with emusifier-containing water to the desired concentration. Cabbage leaves (Brassica oleracea) are treated by being dipped into the preparation of active compound of the desired concentration and are populated with larvae of the mustard beetle (Phaedon cochleariae) while the leaves are still moist.

[4] = test system: all stages of the greenhouse red spider mite (Tetranychus urticae); assay: Tetranychus test (OP-resistant/dip treatment); assay type: in vivo; details: concentration of active compound at most 0.1%, after 6 days, dipped bean plants
Procedure: Tetranychus Test (OP-resistant/dip Treatment)
as §1, §2
To produce a suitable preparation of active compound, 1 part by weight of active compound is mixed with the stated amounts of solvent and emulsifier, and the concentrate is diluted with emulsifier-containing water to the desired concentration.
Bean plants (Phaseolus vulgaris) which are heavily infested by all stages of the greenhouse red spider mite (Tetranychus urticae) are dipped into a preparation of the active compound of the desired concentration.
After the desired period of time, the kill in % is determined. 100% means that all spider mites have been killed; 0% means that none of the spider mites have been killed.

[5] = test system: caterpillars of the cotton bollworm (Heliothis armigera); assay: Heliothis armigera test; assay type: in vivo; details: concentration of active compound 0.004%, after 6 days, dipped soybean shoots
Procedure: as §1, §2, §3
Soybean shoots (Glycine max) are treated by being dipped into the preparation of active compound of the desired concentration and are populated with caterpillars of the cotton bollworm (Heliothis armigera) while the leaves are still moist.
as §4

[6] = test system: caterpillars of the army-worm (Spodoptera frugiperda); assay: Spodoptera frugiperda test; assay type: in vivo; details: concentration of active compound at most 0.1%, after 6 days, dipped cabbage leaves
Procedure: Spodoptera frugiperda Test
as §1, §2, §3
Cabbage leaves (Brassica oleracea) are treated by being dipped into the preparation of active compound of the desired concentration and are populated with caterpillars of the army-worm (Spodoptera frugiperda) while the leaves are still moist.
as §4

[7] = pH 2.3, HPLC, read-out: log P (pH 2.3)

CC(C)(C)OC(=O)N1C(=O)CCC1c1ccc(-c2ccc(OC(F)(F)C(F)F)cc2)cc1 (stereo not drawn) [Example IX-43]
chromatographic logP [1, 7]: 3.96

FC(F)C(F)(F)Oc1ccc(-c2ccc(C3CCC(c4ccccc4Cl)=N3)cc2)cc1 (stereo not drawn) [Example I-43]
chromatographic logP [1, 7]: 4.01

O=C(c1ccccc1Cl)C1CC(c2ccccc2)N(C(=O)c2ccccc2Cl)C1=O (stereo not drawn) [Example G(II)-20, 1,3-(2-chlorobenzoyl)-5-phenyl-pyrrolidin-2-one]
chromatographic logP ([1]; pH 2.5, read-out: log P (pH 2.5)): 3.91

O=C1CCC(c2ccc(-c3ccc(OC(F)(F)C(F)F)cc3)cc2)N1 (stereo not drawn) [Example XI-43]
chromatographic logP [1, 7]: 2.79

FC(F)(F)Oc1ccc(-c2ccc(C3CCC(c4ccccc4Cl)=N3)cc2)cc1 (stereo not drawn) [Example I-7]
kill in % [2]: 100%
kill in % [3]: 100%
kill in % [4]: 100%
kill in % [5]: 100%
kill in % [6]: 100%

CC(C)(C)OC(=O)NC(CCC(=O)c1ccccc1Cl)c1ccc(-c2ccc(OC(F)(F)C(F)F)cc2)cc1 (stereo not drawn) [Example VIII-43]
chromatographic logP [1, 7]: 4.94

Clc1ccccc1C1=NC(c2ccccc2)CC1 (stereo not drawn) [Example I-20]
kill in % [4]: 100%
log P* (pH 7.5) ([1]; pH 7.5, HPLC, Kromasil 120 C 18, water/acetonitrile): 3.6 l
